In patent US8653100B2 (AbbVie Inc., priority 2008, dated 2014):
Structures can show the parent of a compound that is named as a salt.

Experiments:
[1] = target: human GlyT1c (Homo sapiens (Human), UniProt P48067); test: [3H]-Glycine uptake into recombinant CHO cells expressing human GlyT1; assay type: cell-based; conditions: hGlyT1c_5_CHO cells, 200 nM [3H]-glycine
Summary of the method: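 hGlyT1c-expressing CHO cells plated at 20,000 cells/well and cultured 24 h; [3H]-glycine incorporation read continuously by solid-phase scintillation for up to 3 h. IC50 from four-parameter logistic fit using the linear uptake phase between 60 and 120 min.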

[2] = target: human GlyT1c transporter (Homo sapiens (Human), UniProt P48067); test: Radioligand binding assay using recombinant CHO cell membranes expressing human GlyT1; conditions: examples 88-204, radioligand not specified by footnote, read-out: radioligand binding Kiapp
Sequence of human GlyT1c transporter (P48067 whole entry): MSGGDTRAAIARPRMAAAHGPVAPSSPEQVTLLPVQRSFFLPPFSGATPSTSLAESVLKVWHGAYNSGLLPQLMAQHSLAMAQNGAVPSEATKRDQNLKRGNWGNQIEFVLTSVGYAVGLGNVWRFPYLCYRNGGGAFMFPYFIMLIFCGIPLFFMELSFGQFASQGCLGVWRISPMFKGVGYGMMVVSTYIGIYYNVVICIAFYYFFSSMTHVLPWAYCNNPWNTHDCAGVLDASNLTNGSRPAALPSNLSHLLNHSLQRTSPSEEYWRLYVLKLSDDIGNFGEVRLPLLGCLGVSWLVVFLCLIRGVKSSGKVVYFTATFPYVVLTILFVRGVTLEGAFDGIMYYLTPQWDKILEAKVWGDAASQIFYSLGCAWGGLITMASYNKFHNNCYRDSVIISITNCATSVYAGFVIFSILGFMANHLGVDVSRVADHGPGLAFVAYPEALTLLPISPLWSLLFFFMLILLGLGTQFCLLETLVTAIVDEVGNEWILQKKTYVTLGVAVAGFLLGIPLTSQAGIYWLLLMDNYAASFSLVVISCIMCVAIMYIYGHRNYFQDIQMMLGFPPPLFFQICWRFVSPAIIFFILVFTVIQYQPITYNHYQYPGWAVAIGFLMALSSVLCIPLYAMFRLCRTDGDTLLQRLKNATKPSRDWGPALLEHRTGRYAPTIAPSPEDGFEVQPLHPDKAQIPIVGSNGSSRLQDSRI
Summary of the method: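 Competition binding of [^3H]-(R)-NPTS (0.5 nM) to CHO membranes expressing human GlyT1c (50 μg/ml protein) in pH 7.5 Hepes/NaCl buffer with 1% DMSO, 1 h at room temperature. Non-specific binding defined with 10 μM Org24598; filtration and scintillation counting, one-site fit, Ki via Cheng-Prusoff.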

Sequence of human GlyT1c (P48067 whole entry): as above

CCCS(=O)(=O)NCCOc1ccc2c(c1)C(C1(c3ccc(Cl)c(N)c3)CCC1)NCC2 (centres unmarked) [Example 142, N-[2-({1-[1-(3-Amino-4-chlorophenyl)cyclobutyl]-1,2,3,4-tetrahydroisoquinolin-7-yl}oxy)ethyl]propane-1-sulfonamide dihydrochloride]
IC50 [1]: ≤ 0.1 µM
Ki [2]: ≤ 0.1 µM

CCCS(=O)(=O)NCCOc1ccc2c(c1)C(C(C)c1ccc(Cl)cc1)NCC2 (centres unmarked) [Example 145, N-[2-({1-[1-(4-Chlorophenyl)ethyl]-1,2,3,4-tetrahydroisoquinolin-7-yl}oxy)ethyl]propane-1-sulfonamide hydrochloride]
IC50 [1]: ≤ 0.1 µM
Ki [2]: ≤ 0.1 µM

CC(C)(C)CS(=O)(=O)NCCOc1ccc2c(c1)C(C1(c3ccc(Cl)cc3)CCC1)NCC2 (centres unmarked) [Example 155, N-[2-({1-[1-(4-Chlorophenyl)cyclobutyl]-1,2,3,4-tetrahydroisoquinolin-7-yl}oxy)ethyl]-2,2-dimethylpropane-1-sulfonamide hydrochloride]
IC50 [1]: ≤ 10 µM
Ki [2]: ≤ 0.1 µM

Nc1ccc(S(=O)(=O)NCCOc2ccc3c(c2)C(C2(c4ccc(Cl)cc4)CCC2)NCC3)cn1 (centres unmarked) [Example 165, 6-Amino-N-[2-({1-[1-(4-chlorophenyl)cyclobutyl]-1,2,3,4-tetrahydroisoquinolin-7-yl}oxy)ethyl]pyridine-3-sulfonamide]
IC50 [1]: ≤ 10 µM
Ki [2]: ≤ 1 µM

O=S(=O)(NCCOc1ccc2c(c1)C(C1(c3ccc(Cl)cc3)CCC1)NCC2)c1c(Cl)nc2sccn12 (centres unmarked) [Example 167, 6-Chloro-N-[2-({1-[1-(4-Chlorophenyl)cyclobutyl]-1,2,3,4-tetrahydroisoquinolin-7-yl}oxy)ethyl]imidazo[2,1-b][1,3]thiazole-5-sulfonamide hydrochloride]
IC50 [1]: ≤ 10 µM
Ki [2]: ≤ 1 µM

CCCS(=O)(=O)NCCOc1ccc2c(c1)C(C(O)(c1ccc(Cl)cc1)c1ccc(Cl)cc1)NCC2 (centres unmarked) [Example 176, N-[2-({1-[Bis(4-chlorophenyl)(hydroxy)methyl]-1,2,3,4-tetrahydroisoquinolin-7-yl}oxy)ethyl]propane-1-sulfonamide hydrochloride]
IC50 [1]: ≤ 10 µM
Ki [2]: ≤ 10 µM

CN(C)CCCS(=O)(=O)NCCOc1ccc2c(c1)C(C1(c3ccc(Cl)cc3)CCC1)NCC2 (centres unmarked) [Example 181, N-[2-({1-[1-(4-Chlorophenyl)cyclobutyl]-1,2,3,4-tetrahydroisoquinolin-7-yl}oxy)ethyl]-3-(dimethylamino)propane-1-sulfonamide (2E)-but-2-enedioate]
IC50 [1]: ≤ 10 µM
Ki [2]: ≤ 10 µM

O=S(=O)(NCCOc1ccc2c(c1)[C@@H](C1(c3ccc(Cl)cc3)CCC1)NCC2)c1cccnc1 [Example 182, N-[2-({(1R)-1-[1-(4-Chlorophenyl)cyclobutyl]-1,2,3,4-tetrahydroisoquinolin-7-yl}oxy)ethyl]pyridine-3-sulfonamide hydrochloride]
IC50 ([1]; hydrochloride): ≤ 10 µM
Ki [2]: ≤ 10 µM

CCCN1CCN(S(=O)(=O)NCCOc2ccc3c(c2)C(C2(c4ccc(Cl)cc4)CCC2)NCC3)CC1 (centres unmarked) [Example 183, N-[2-({1-[1-(4-Chlorophenyl)cyclobutyl]-1,2,3,4-tetrahydroisoquinolin-7-yl}oxy)ethyl]-4-propylpiperazine-1-sulfonamide dihydrochloride]
IC50 [1]: ≤ 10 µM
Ki [2]: ≤ 10 µM

CCCNCCCS(=O)(=O)NCCOc1ccc2c(c1)C(C1(c3ccc(Cl)cc3)CCC1)NCC2 (centres unmarked) [Example 186, N-[2-({1-[1-(4-Chlorophenyl)cyclobutyl]-1,2,3,4-tetrahydroisoquinolin-7-yl}oxy)ethyl]-3-(propylamino)propane-1-sulfonamide (2E)-but-2-enedioate]
IC50 [1]: ≤ 10 µM
Ki [2]: ≤ 10 µM

CCNCCCS(=O)(=O)NCCOc1ccc2c(c1)C(C1(c3ccc(Cl)cc3)CCC1)NCC2 (centres unmarked) [Example 187, N-[2-({1-[1-(4-Chlorophenyl)cyclobutyl]-1,2,3,4-tetrahydroisoquinolin-7-yl}oxy)ethyl]-3-(ethylamino)propane-1-sulfonamide]
IC50 [1]: ≤ 10 µM
Ki [2]: ≤ 10 µM

CCN(CC)CCCS(=O)(=O)NCCOc1ccc2c(c1)C(C1(c3ccc(Cl)cc3)CCC1)NCC2 (centres unmarked) [Example 194, N-[2-({1-[1-(4-Chlorophenyl)cyclobutyl]-1,2,3,4-tetrahydroisoquinolin-7-yl}oxy)ethyl]-3-(diethylamino)propane-1-sulfonamide]
IC50 [1]: ≤ 10 µM
Ki [2]: ≤ 10 µM

CC(C)NCCCS(=O)(=O)NCCOc1ccc2c(c1)C(C1(c3ccc(Cl)cc3)CCC1)NCC2 (centres unmarked) [Example 197, N-[2-({1-[1-(4-Chlorophenyl)cyclobutyl]-1,2,3,4-tetrahydroisoquinolin-7-yl}oxy)ethyl]-3-(propan-2-ylamino)propane-1-sulfonamide (2E)-but-2-enedioate]
IC50 [1]: ≤ 100 µM
Ki [2]: ≤ 10 µM

O=S(=O)(CCCN1CCCCC1)NCCOc1ccc2c(c1)C(C1(c3ccc(Cl)cc3)CCC1)NCC2 (centres unmarked) [Example 200, N-[2-({1-[1-(4-Chlorophenyl)cyclobutyl]-1,2,3,4-tetrahydroisoquinolin-7-yl}oxy)ethyl]-3-(piperidin-1-yl)propane-1-sulfonamide (2E)-but-2-enedioate]
IC50 [1]: ≤ 10 µM
Ki [2]: ≤ 100 µM

O=S(=O)(CCCN1CCOCC1)NCCOc1ccc2c(c1)C(C1(c3ccc(Cl)cc3)CCC1)NCC2 (centres unmarked) [Example 201, N-[2-({1-[1-(4-Chlorophenyl)cyclobutyl]-1,2,3,4-tetrahydroisoquinolin-7-yl}oxy)ethyl]-3-(morpholin-4-yl)propane-1-sulfonamide (2E)-but-2-enedioate]
IC50 [1]: ≤ 100 µM
Ki [2]: ≤ 100 µM

CCNC(=O)NCCS(=O)(=O)NCCOc1ccc2c(c1)C(C1(c3ccc(Cl)cc3)CCC1)NCC2 (centres unmarked) [Example 202, N-[2-({1-[1-(4-Chlorophenyl)cyclobutyl]-1,2,3,4-tetrahydroisoquinolin-7-yl}oxy)ethyl]-2-[(ethylcarbamoyl)amino]ethanesulfonamide (2E)-but-2-enedioate]
IC50 [1]: ≤ 10 µM
Ki [2]: ≤ 100 µM
